In patent US8623903B2, “Indolecarboxylic acid derivative having PGD2 receptor antagonistic activity” (Shionogi & Co., Ltd., priority 2005, dated 2014):

Legend:
OVA asthma model of rat [1] = assay: OVA asthma model of rat: mucus-secretion (mucin in airway lavage fluid, ELISA); format: in vivo, Brown Norway (BN) Rats; conditions: BN rats, 10 mg/kg p.o. once a day for three days, mucin in airway lavage fluid by ELISA vs control group
Protocol: (§1) Brown Norway (BN) Rats were sensitized by i.p. administration of 0.1 mg/mL of ovalbumin (OVA) and 1 mg of aluminum hydroxide gel. A solution of 1% OVA was aerosolized by ultrasonic nebulizer (NE-U17) and the rats were subjected to inhalation exposure of the aerosol for 30 minutes in an exposing chamber 12, 19, 26 and 33 days after the sensitization. One hour before the 4th exposure of the antigen, compounds of the present invention were administered in a dose of 10 mg/kg p.o. once a day for three days consecutively. In a control group, 0.5% of methyl cellulose was administered in place of the compound of the present invention.
(§2) After the measurement of increased hyperresponsive airway was completed, bronchoalveoli of the rats were washed with 5 mL of saline three times. Total cell number in the washings was counted by a hemacytometer under light microscope, and inhibition rates of infiltration of inflammatory cells against the control group were calculated. Further, mucin in the airway lavage fluid was measured by ELISA method using jacalin, a mucin-binding lectin, and the inhibition rates of mucus-secretion against the control group were calculated.

DP receptor [2] = molecular target: T1, DP receptor (Homo sapiens (Human), UniProt Q13258); assay: cAMP assay with washed platelets (DP inhibitory activity in vitro); format: cell-based; conditions: 100 nM of PGD2, cAMP by HTRF, read-out: IC50 (50% DP-inhibitory concentration in the cAMP assay)
T1 sequence (Q13258 whole entry): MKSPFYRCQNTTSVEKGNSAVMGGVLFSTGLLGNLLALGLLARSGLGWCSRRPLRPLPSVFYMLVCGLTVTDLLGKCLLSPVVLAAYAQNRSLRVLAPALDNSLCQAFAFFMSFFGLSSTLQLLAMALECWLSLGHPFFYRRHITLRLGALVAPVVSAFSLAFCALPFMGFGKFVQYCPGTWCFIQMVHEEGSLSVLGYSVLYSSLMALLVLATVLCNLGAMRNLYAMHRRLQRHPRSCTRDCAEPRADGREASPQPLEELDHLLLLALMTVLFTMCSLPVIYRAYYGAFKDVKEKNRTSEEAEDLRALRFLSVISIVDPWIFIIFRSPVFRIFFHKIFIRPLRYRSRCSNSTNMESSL
Protocol: 1) Preparation of Platelet and a Method of cAMP Assay
30 mL of peripheral blood was collected from a healthy volunteer using a syringe containing one ninth amount of 3.8% sodium citrate. After being centrifuged at 180 g for 10 minutes at room temperature, a supernatant was collected and used as Platelet Rich Plasma (PRP). The resulting PRP was washed with wash buffer and centrifuged three times (Washed Platelet: WP) and platelets were counted by a microcell counter. WP was added to a plate in amount of 1.5×10^8/assay and the plate was treated with 3-isobutyl-1-methylxanthin (IBMX; 0.5 mM) for 5 minutes. A reaction was initiated by adding 100 nM of PGD2 5 min after an addition of a test compound. The reaction was terminated with an addition of 1N hydrochloric acid after 2 minutes and the cells were destructed using 12% triton X-100. An amount of cAMP in the supernatant was assayed by Homogeneous Trangient Fluorescence (HTRF)

OVA asthma model of rat [3] = assay: OVA asthma model of rat: infiltration of inflammatory cells in bronchoalveolar washings; format: in vivo, Brown Norway (BN) Rats; conditions: BN rats, 10 mg/kg p.o. once a day for three days, total cell number in bronchoalveolar washings vs control group
Protocol: as §1, §2

OVA asthma model of rat [4] = assay: OVA asthma model of rat: increased hyperresponsive airway (acetylcholine); format: in vivo, Brown Norway (BN) Rats; conditions: BN rats, 10 mg/kg p.o. once a day for three days, vs control group, AUC of acetylcholine response curve
Protocol: as §1
Under pentobarbital anesthesia (80 mg/kg, i.p.), acetylcholine (3.9, 7.8, 15.6, 31.3, 62.5, 125, 250 and 500 μg/kg) was injected to jugular vein of the rats successively from a lower dose at intervals of 5 minutes three days after the fourth exposure to the antigen, and immediate contractile reaction of airways (an increase of insufflation pressure) was measured by a modified method of Konnzett & Rössler. Inhibition rate of increased hyperresponsive airway against the control group was calculated based on area under the curve (AUC) obtained from concentration-response curve of acetylcholine.

DP receptor [5] = molecular target: T1, DP receptor; assay: Receptor binding assay, [3H]-PGD2, platelet membrane
Protocol: 2) Receptor Binding Assay
A prepared WP was homogenated and a membrane fraction was collected with high-speed centrifugation. A compound of the present invention was added to the plate and [^3H]-PGD2 was also added. A platelet membrane, a protein concentration is 2 mg/mL, was added and mixed in the plate, and placed on ice for 2 hours. The reaction solution was transferred to a low protein-adsorptive filter and washed with a wash solution eight times using a cell harvester. After the final washing, water was removed sufficiently, and scintillator was added. DP inhibitory activity was investigated by measuring [^3H] by using Micro Beta.

Row | IC50 (DP receptor [2]) [nM] | Ki (DP receptor [5]) [nM] | Structure (SMILES) | inhibition rate (%) mucus-secretion (OVA asthma model of rat [1]) [%] | inhibition rate (%) infiltration of inflammatory cells (OVA asthma model of rat [3]) [%] | inhibition rate (%) airway hyperresponsiveness (OVA asthma model of rat [4]) [%]
1 | 4.7 | 7.7 | CC(C)Oc1ccc(S(=O)(=O)N2CCC(n3cc(CC(=O)O)c4ccccc43)CC2)cc1 [Compound I-1] | 52 | 58 | 43
2 | 4.1 | 22 | CC(C)Oc1ccc(S(=O)(=O)N2CCC(n3cc(CC(=O)O)c4cc(Cl)ccc43)CC2)cc1 [Compound I-5] | – | – | –
3 | 4.8 | – | CCOc1ccc(S(=O)(=O)N2CCC(n3cc(CC(=O)O)c4cc(Cl)ccc43)CC2)cc1 [Compound I-6] | – | – | –
4 | 1.8 | – | CC(C)Oc1ccc(S(=O)(=O)N2CCC(n3cc(CC(=O)O)c4cc(Cl)ccc43)C2)cc1 (centres unmarked) [Compound I-7] | – | – | –
5 | 4.9 | – | CCOc1ccc(S(=O)(=O)N2CCC(n3cc(CC(=O)O)c4cc(Cl)ccc43)C2)cc1 (centres unmarked) [Compound I-8] | – | – | –
6 | 2 | – | CC(C)Oc1ccc(S(=O)(=O)N2CCC(n3cc(CC(=O)O)c4ccc(Cl)cc43)CC2)cc1 [Compound I-9] | – | – | –
7 | 6.9 | – | CCOc1ccc(S(=O)(=O)N2CCC(n3cc(CC(=O)O)c4ccc(Cl)cc43)CC2)cc1 [Compound I-10] | – | – | –
8 | 4.9 | – | CC(C)Oc1ccc(S(=O)(=O)N2CCC(n3cc(CC(=O)O)c4ccc(Cl)cc43)C2)cc1 (centres unmarked) [Compound I-11] | 30 | 56 | 77
9 | 6.9 | – | CCOc1ccc(S(=O)(=O)N2CCC(n3cc(CC(=O)O)c4ccc(Cl)cc43)C2)cc1 (centres unmarked) [Compound I-12] | – | – | –
10 | 2.2 | 5.6 | CC(C)Oc1ccc(S(=O)(=O)N2CCC(n3cc(CC(=O)O)c4cc(F)ccc43)CC2)cc1 [Compound I-14] | – | – | –
11 | 1.3 | – | CC(C)Oc1ccc(S(=O)(=O)N2CCC(n3cc(CC(=O)O)c4ccc(F)cc43)CC2)cc1 [Compound I-16] | – | – | –
12 | 3.8 | – | CC(C)Oc1ccc(S(=O)(=O)N2CC[C@@H](n3cc(CC(=O)O)c4ccccc43)C2)cc1 [Compound I-20] | – | – | –
13 | 3 | – | CC(C)Oc1ccc(S(=O)(=O)N2CC[C@H](n3nc(CC(=O)O)c4cc(Cl)ccc43)C2)cc1 [Compound I-21] | – | – | –
14 | 1.2 | 5.4 | CC(C)Oc1ccc(S(=O)(=O)N2CC[C@@H](n3cc(CC(=O)O)c4ccc(Cl)cc43)C2)cc1 [Compound I-30] | – | – | –
15 | 2.9 | 4.3 | CC(C)Oc1ccc(S(=O)(=O)N2CC[C@@H](n3cc(CC(=O)O)c4ccc(F)cc43)C2)cc1 [Compound I-31] | – | – | –

Row | Structure (SMILES) | IC50 (DP receptor [2]) [nM] | Ki (DP receptor [5]) [nM] | inhibition rate (%) mucus-secretion (OVA asthma model of rat [1]) [%] | inhibition rate (%) infiltration of inflammatory cells (OVA asthma model of rat [3]) [%] | inhibition rate (%) airway hyperresponsiveness (OVA asthma model of rat [4]) [%]
16 | CC(C)Oc1ccc(S(=O)(=O)N2CCC(n3cc(C(=O)O)c4ccccc43)CC2)cc1 [Compound I-23] | 1.6 | 1.4 | 72 | 79 | 46
17 | CC(C)Oc1ccc(S(=O)(=O)N2CC[C@@H](n3cc(C(=O)O)c4ccc(Cl)cc43)C2)cc1 [Compound I-32] | 7 | – | – | – | –
